Like-named read-outs stand apart in the source and are kept apart here.

In test [1] the test system is blood-perfused sino-atrial preparation. Put plainly: sinus rate on blood-perfused sino-atrial preparation. The settings on record: for activation at 0.001 mg / activation at 0.003 mg / activation at 0.01 mg / activation at 0.03 mg: Canis lupus familiaris, read-out: change of sinus rate (%); for activation at 0.003 mg: dose 3.0 ug; for activation at 0.01 mg: dose 10.0 ug; for activation at 0.03 mg: dose 30.0 ug. More on the design: species or system dog. As to the method: Determination of sinus rate on blood-perfused sino-atrial preparation: Mongrel gods of either sex weighing 7-12 kg were anesthetized with sodium pentoba rbital (30 mg/kg i.v.). Heparin ob 1000 unit/kg was administered to each animal intravenously and the animals were exsanguinated. Heart was removed and put in Krebs-Henseleit solution. Catheter was inserted into blood vessel between right coronary artery and SA nodes. Right atrium and catheter were together removed. Blood supplied from carotid artery of donor dog of either sex weighing 15-25 kg, was supplied to blood vessel cather from right coronary artery and SA node under constant blood pressure of 100 mmHG by use of Peristaltic pump. The resting tension of right atrial muscle was made to 2g. The sinus rate triggered by spontaneous contraction of atrial muscle was determined on Narco physiograph Narcotrace 4). Detailed method was reported by S. Chiba, et al. in Japanese Pharmacology 25, 433-439(1975). Doses of test compounds were injected into flowing blood in gum tube connected to the near part of the catheter inserted into right coronary artery. The effects on sinus rate were shown as percent compared with the sinus ratio prior to the injection of the test compounds.

Test [2] deals with blood perfused papillary muscle preparation. Put plainly: contractile power on blood perfused papillary muscle preparation. The settings on record: for activation at 0.001 mg / activation at 0.003 mg / activation at 0.01 mg / activation at 0.03 mg: Canis lupus familiaris, read-out: change of contractivity (%); for activation at 0.001 mg: dose 1.0 ug; for activation at 0.003 mg: dose 3.0 ug; for activation at 0.01 mg: dose 10.0 ug; for activation at 0.03 mg: dose 30.0 ug; for ED 30 (developed tension of papillary muscle): least-square method. More on the design: species or system dog. As to the method:
Determination of contractile power on blood perfused papillary muscle preparation:
Dogs of either sex weighing 7-12 kg were anesthetized with sodium pentobarbital (30 mg/kg, i.v.). Heparin of 1000 unit/kg was administered to each animal intravenously. The animals were exsanguinated and heart was removed. The preparation was perfused through the cannulated anterior septal artery (ASA) with arterial blood from a donor dog at constant pressure of about […]. Donor dogs were anesthetized with sodium pentobarbital (30 mg/kg, i.v.). Heparin of 1000 units/kg was administered intravenously. The papillary muscle was stimulated with rectangular pulses of 5- ms duration and about 1.5 times the threshold voltage at a rate of 120 stimuli/min through bipolar electrodes. Resting tension was made to 2 g. The developed tension of papillary muscle was determined by Isometric tresducer. Detailed method was reporated by Matsumoto in Am J. Physiol. 218, 1459-1463 (1970). Test compound at the doses of 10-30 ul was injected in flowing blood in the gum tube connected to catheter. The inotropic effect of the test compounds was shown by change percent of developed tension compared with that prior to the administration of the test compounds.

The test system of the next test is anesthetized cats. Put plainly: cardiotonic effect on anesthetized cats. The format is in vivo, cat. The settings on record: Felis catus; for change in vivo at 0.01 mg/kg: 0.01 mg/Kg iv; for change in vivo at 0.03 mg/kg: 0.03 mg/Kg iv; for change in vivo at 0.1 mg/kg: 0.1 mg/Kg iv. The procedure:
Determination of cardiotonic effect on anesthetized cats: Male cats weighing about 3 kg were anesthetized with sodium pentobarbital (30 mg/kg, i.p.). The same anesthetic was infused intravenously at the does of 4 mg/kg/hr in order to maintain the anesthetic state and mechanically ventilated through a cuffed endotracheal tube, chest was opened by a midline incision and a catheter for measuring left ventricular pressure was inserted through apex into left ventricle and the left ventricular pressure was measured. LVdP/dt was determined by use of diffentiator from the left ventricular pressure. Systemic blood pressure was measured by the left femoral artery by a pressure transducer and heart rate was measured by a cardiotachometer triggered by blood pressure pulses. Test compound was injected into the femoral vein by use of cannule. After completion of the surgical procedures, the cats were allowed to recover about 30 minutes before drug administration. These compounds were dissolved in 0.9% physiological saline and diluted with saline. Solvent such as DMSO or DMF was also used, if necessary. Test compound of 0.1 ml/kg was used. Detailed method was reporated in J. Med. Chem. 30. 1279-87(1987).

For `Cc1cn(-c2ccc3c(c2)COC(=O)N3)c(C)n1` [6-(2,4-dimethylimidazol-1-yl)-(4H)-3,1-benzoxazin-2-one], the activation at 0.001 mg in test [1] (dose 1.0 ug) amounted to 0%. Also, in test [1], the activation at 0.003 mg was 0%, the activation at 0.01 mg came to 0% and the activation at 0.03 mg was 1.67%. Besides, in test [1] (at the ED 30 dose), the “change of sinus rate (%)” value is listed as “+2.56%”. In test [2], the activation at 0.001 mg was found to be 0%, the activation at 0.003 mg amounted to 3.7%, the activation at 0.01 mg was found to be 10.3% and the activation at 0.03 mg stood at 15.2%.
As to `CCc1nc(C)cn1-c1ccc2c(c1)COC(=O)N2` [6-(2-ethyl-4-methylimidazol-1-yl)-(4H)-3,1-benzoxazin-2-one], the activation at 0.001 mg in test [1] (dose 1.0 ug) stood at 0%. Moreover, in test [1], the activation at 0.003 mg is 0%, the activation at 0.01 mg is 0.83% and the activation at 0.03 mg was found to be 1.65%. For the same compound, in test [1] (at the ED 30 dose), the “change of sinus rate (%)” value is recorded as “+6.82%”. For the same compound, in test [2], the activation at 0.001 mg is 0.68%, the activation at 0.003 mg is 3.45%, the activation at 0.01 mg amounted to 12.5% and the activation at 0.03 mg was 14.7%.
As to `O=C1Nc2ccc(-n3ccnc3)cc2CS1` [6-(imidazol-1-yl)-(4H)-3,1-benzothiazin-2-one], the change in vivo at 0.01 mg/kg with anesthetized cats (read-out: HR (%)) was 1.6%; in the test with anesthetized cats (read-out: LV dp/dt (%)) it was 0%; in the test on anesthetized cats (read-out: LVP (%)) it was 0%; with anesthetized cats (read-out: SBP (%)) it was -2.4%; in the test on anesthetized cats (read-out: dBP) it was 0%; with anesthetized cats (read-out: mBP (%)) it was -1.2%. The change in vivo at 0.03 mg/kg with anesthetized cats (read-out: HR (%)) is 4.7%; with anesthetized cats (read-out: LV dp/dt (%)) it was 20%; in the test on anesthetized cats (read-out: LVP (%)), 9.9%; with anesthetized cats (read-out: SBP (%)), -4.8%; in the test with anesthetized cats (read-out: dBP), -7.8%; in the test with anesthetized cats (read-out: mBP (%)) it was -5.8%. Moreover, the change in vivo at 0.1 mg/kg in the test on anesthetized cats (read-out: HR (%)) is 7%; in the test on anesthetized cats (read-out: LV dp/dt (%)), 39.6%; in the test on anesthetized cats (read-out: LVP (%)), 18.9%; with anesthetized cats (read-out: SBP (%)) it was -19.1%; in the test with anesthetized cats (read-out: dBP), -19.1%; in the test with anesthetized cats (read-out: mBP (%)) it was -19.6%. Moreover, in test [2], the activation at 0.01 mg is 10.7%. The activation at 0.03 mg in test [2] was 22.7%.
Regarding `S=C1Nc2ccc(-n3ccnc3)cc2CS1` [6-(imidazol-1-yl)-(4H)-3,1-benzothiazin-2-thione], the change in vivo at 0.01 mg/kg is -1.1% in the test on anesthetized cats (read-out: HR (%)); 8.3% with anesthetized cats (read-out: LV dp/dt (%)); 2% in the test with anesthetized cats (read-out: LVP (%)); 2% in the test with anesthetized cats (read-out: SBP (%)); -3.2% in the test on anesthetized cats (read-out: dBP); -2% with anesthetized cats (read-out: mBP (%)). Further, the change in vivo at 0.03 mg/kg with anesthetized cats (read-out: HR (%)) was -0.8%; in the test with anesthetized cats (read-out: LV dp/dt (%)), 16.6%; with anesthetized cats (read-out: LVP (%)) it was 4%; in the test on anesthetized cats (read-out: SBP (%)), 3%; in the test with anesthetized cats (read-out: dBP), -3.3%; with anesthetized cats (read-out: mBP (%)) it was 0%. The change in vivo at 0.1 mg/kg with anesthetized cats (read-out: HR (%)) is 0.6%; with anesthetized cats (read-out: LV dp/dt (%)), 25%; with anesthetized cats (read-out: LVP (%)) it was 5.7%; in the test with anesthetized cats (read-out: SBP (%)), 3%; with anesthetized cats (read-out: dBP), -7.4%; in the test on anesthetized cats (read-out: mBP (%)), -3.6%.
On to `Cc1cn(-c2cc(C)c3c(c2)CSC(=O)N3)cn1` [8-methyl-6-(4-methylimidazol-1-yl)(4H)-3,1-benzothiazin-2-one], for which the change in vivo at 0.01 mg/kg is 4.2% in the test on anesthetized cats (read-out: HR (%)); 33.3% in the test on anesthetized cats (read-out: LV dp/dt (%)); 3.3% with anesthetized cats (read-out: LVP (%)); 0% with anesthetized cats (read-out: SBP (%)); 0% in the test with anesthetized cats (read-out: dBP); 0% in the test with anesthetized cats (read-out: mBP (%)). Further, the change in vivo at 0.03 mg/kg in the test with anesthetized cats (read-out: HR (%)) is 7.3%; in the test on anesthetized cats (read-out: LV dp/dt (%)), 58.4%; in the test on anesthetized cats (read-out: LVP (%)), 5.7%; in the test on anesthetized cats (read-out: SBP (%)), -3.8%; in the test on anesthetized cats (read-out: dBP) it was -4%; in the test on anesthetized cats (read-out: mBP (%)), -4.5%. The change in vivo at 0.1 mg/kg in the test on anesthetized cats (read-out: HR (%)) was 12.6%; with anesthetized cats (read-out: LV dp/dt (%)), 75%; in the test with anesthetized cats (read-out: LVP (%)) it was 8.8%; in the test with anesthetized cats (read-out: SBP (%)), -6.5%; in the test on anesthetized cats (read-out: dBP) it was -12%; with anesthetized cats (read-out: mBP (%)) it was -16.1%. Besides, the activation at 0.003 mg in test [1] was 3.3%; in test [2], 26.5%. In addition, the “change of sinus rate (%)” value in test [1] (at the ED 30 dose) is recorded as “+3.5%”; in test [1] (at the ED 30 dose, listed as 8-methyl-6-(4-methylimidazol-1-)-(4H)-3,1-benzothiazin-2-one), “+7.1%”; in test [1] (dose 0.1 ug), “+2.5%”; in test [1] (dose 0.3 ug), “+1.6%”; in test [1] (dose 1.0 ug), “+2.5%”. Moreover, the “ED 30 (developed tension of papillary muscle)” value amounted to 5.0 µg in test [2] and 0.6 µg in test [2] (listed as 8-methyl-6-(4-methylimidazol-1-)-(4H)-3,1-benzothiazin-2-one).
In the case of `Cc1cn(-c2cc(C)c3c(c2)CSC(=S)N3)cn1` [8-methyl-6-(4-methylimidazol-1-yl)-(4H)-3,1-benzothiazin-2-thione], the change in vivo at 0.01 mg/kg in the test with anesthetized cats (read-out: HR (%)) was 0%; in the test with anesthetized cats (read-out: LV dp/dt (%)) it was 6%; with anesthetized cats (read-out: LVP (%)) it was 1.2%; in the test with anesthetized cats (read-out: SBP (%)), -2.3%; in the test with anesthetized cats (read-out: dBP) it was -5.1%; with anesthetized cats (read-out: mBP (%)) it was -3.3%. Moreover, the change in vivo at 0.03 mg/kg in the test with anesthetized cats (read-out: HR (%)) was 1.6%; with anesthetized cats (read-out: LV dp/dt (%)), 20%; in the test with anesthetized cats (read-out: LVP (%)) it was 1.8%; with anesthetized cats (read-out: SBP (%)), -2.3%; in the test on anesthetized cats (read-out: dBP), -7.7%; in the test with anesthetized cats (read-out: mBP (%)) it was -5.3%. The change in vivo at 0.1 mg/kg was 10.9% with anesthetized cats (read-out: HR (%)); 53.3% in the test with anesthetized cats (read-out: LV dp/dt (%)); 2% with anesthetized cats (read-out: LVP (%)); -3.1% with anesthetized cats (read-out: SBP (%)); -11.5% in the test on anesthetized cats (read-out: dBP); -7.6% in the test with anesthetized cats (read-out: mBP (%)).

The values above are taken from patent US5171851A, “Imidazole substituted benzoxazine or benzothiazine derivatives” (Dong-A Pharm. Co., Ltd., priority 1990, dated 1992).
